# Laboratory results as given in publication PMC6930500, “Structure–Activity Relationships of 7-Substituted Dimethyltyrosine-Tetrahydroisoquinoline Opioid Peptidomimetics” (Molecules, 2019).
# Columns and labels:
# human MOR [1] = target: T1, human MOR (Homo sapiens, UniProt P35372); assay: [3H]-diprenorphine competitive displacement binding, MOR; details: for Ki: membranes from CHO cells expressing human MOR, mean (SEM), n>=3 in duplicate
# T1 construct: expressed in transfected cells; cell lines provided by Professor Lawrence Toll
# Procedure: (§1) Each novel compound was evaluated for binding to and stimulation of KOR, MOR, and DOR. Binding affinity (Ki) was determined by competitive displacement of [^3H]-diprenorphine, a non-selective opioid receptor antagonist with similar affinity for each of the three receptors. Potency (EC50) and efficacy, expressed as percent stimulation compared to a standard agonist at each receptor, were determined by a [^35S]-GTPγS binding assay.
# (§2) Membranes prepared from transfected Chinese Hamster Ovary cells stably expressing human KOR, human MOR, or human DOR were used for all assays. Cells were grown to confluence at 37 °C in 5% CO2 in 1:1 DMEM:F12 media with 10% v/v fetal bovine serum and 5% v/v penicillin/streptomycin. Membranes were prepared by washing confluent cells three times with ice cold phosphate-buffered saline (0.9% NaCl, 0.61 mM Na2HPO4, 0.38 mM KH2PO4, pH 7.4). Cells were detached from the plates by incubation in warm harvesting buffer (20 mM HEPES, 150 mM NaCl, 0.68 mM EDTA, pH 7.4) and pelleted by centrifugation at 200× g for 3 min. The cell pellet was suspended in ice-cold 50 mM Tris-HCl buffer, pH 7.4 and homogenized with a Tissue Tearor (Biospec Products, Inc, distributed by Cole-Parmer, Vernon Hills, IL, USA) for 20 s at setting 4. The homogenate was centrifuged at 20,000× g for 20 min at 4 °C, and the pellet was rehomogenized in 50 mM Tris-HCl pH 7.4 with a Tissue Tearor for 10 s at setting 2, followed by recentrifugation. The final pellet was resuspended in 50 mM Tris-HCl pH 7.4 and frozen in aliquots at −80 °C. Protein concentration was determined via Pierce BCA protein assay kit using bovine serum albumin as the standard.
# (§3) Binding affinities for all test compounds at KOR, MOR, and DOR were determined by competitive displacement of [^3H]-diprenorphine as previously reported. In a 96-well plate format, cell membranes (5–10 µg of protein) and [^3H]-diprenorphine (0.2 nM) were incubated in Tris-HCl buffer (50 mM, pH 7.4) with various concentrations of test compound at 25 °C for 1 h, allowing the mixture to reach equilibrium. Nonspecific binding was determined using the opioid antagonist naloxone (10 µM), and total binding was determined using vehicle in the absence of competitive ligand. After incubation, membranes were filtered through Whatman GF/C 1.2 micron glass fiber filters and washed with 50 mM Tris-HCl buffer. The radioactivity remaining on the filters was then quantified by liquid scintillation counting after saturation with EcoLume liquid scintillation cocktail in a Microbeta 2450 (Perkin-Elmer, Waltham, MA, USA). Binding affinity (Ki) values were calculated using the Cheng–Prusoff equation via nonlinear regression analysis using GraphPad Prism software from at least three separate binding assays performed in duplicate.
# human KOR [2] = target: T2, human KOR (Homo sapiens, UniProt P41145); assay: [3H]-diprenorphine competitive displacement binding, KOR; details: for Ki: membranes from CHO cells expressing human KOR, mean (SEM), n>=3 in duplicate
# T2 construct: expressed in transfected cells; cell lines provided by Professor Lawrence Toll
# Procedure: as §1, §2, §3
# human DOR [3] = target: T3, human DOR (Homo sapiens, UniProt P41143); assay: [3H]-diprenorphine competitive displacement binding, DOR; details: membranes from CHO cells expressing human DOR; mean (SEM), n>=3 in duplicate
# T3 construct: expressed in transfected cells; cell lines provided by Professor Lawrence Toll
# Procedure: as §1, §2, §3
# human KOR [4] = target: T2, human KOR; assay: [35S]-GTPγS binding stimulation, KOR; format: biochemical; details: mean (SEM); for EC50 / EC50 KOR: CHO-human KOR membranes, * n = 2, dns = does not stimulate, average maximal stimulation <10% at up to 10 µM; for Emax / % Stimulation KOR: versus 10 µM standard agonist U69,593, dns = average maximal stimulation <10% at up to 10 µM
# Procedure: as §1, §2
# (§4) Agonist stimulation of KOR, MOR, and DOR by all test compounds was determined by [^35S]-guanosine 5′-O-[γ-thio]triphosphate ([^35S]-GTPγS) binding assays as previously reported. In a 96-well plate format, membranes from cells expressing opioid receptors as described above (10 µg of protein), [^35S]-GTPγS (0.1 nM), and guanosine diphosphate (30 µM) were incubated in GTPγS buffer (50 mM Tris-HCl, 100 mM NaCl, 5 mM MgCl2, 1 mM EDTA, pH 7.4) with various concentrations of test compound at 25 °C for 1 h. Basal stimulation was determined by incubation in the absence of any ligand. After incubation, membranes were filtered through Whatman GF/C 1.2 micron glass fiber filters and washed with GTPγS buffer with no EDTA. The radioactivity remaining on the filters was then quantified by liquid scintillation counting after saturation with EcoLume liquid scintillation cocktail in a Perkin-Elmer Microbeta 2450. Data are reported as percent stimulation compared to the effects of 10 µM standard agonists—U69,593 (KOR), DAMGO (MOR), or DPDPE (DOR). Percent stimulation and EC50 values were determined via nonlinear regression analysis using GraphPad Prism software from at least three separate assays performed in duplicate. Efficacy is expressed as percent stimulation relative to standard agonists.
# human DOR [5] = target: T3, human DOR; assay: [35S]-GTPγS binding stimulation, DOR; format: biochemical; details: mean (SEM), * n = 2; for % Stimulation DOR: versus 10 µM standard agonist DPDPE, dns = average maximal stimulation <10% at up to 10 µM
# Procedure: as §1, §2, §4
# human MOR [6] = target: T1, human MOR; assay: [35S]-GTPγS binding stimulation, MOR; format: biochemical; details: mean (SEM), * n = 2; for EC50: CHO-human MOR membranes, dns = does not stimulate, average maximal stimulation <10% at up to 10 µM; for Emax: versus 10 µM standard agonist DAMGO, dns = average maximal stimulation <10% at up to 10 µM
# Procedure: as §1, §2, §4
# [7] = CHO-human DOR membranes, dns = does not stimulate, average maximal stimulation <10% at up to 10 µM
smiles,measurement,setting,value
"COc1ccccc1Cc1ccc2c(c1)CN(C(=O)[C@@H](N)Cc1c(C)cc(O)cc1C)CC2 [Compound 8a, (S)-2-amino-3-(4-hydroxy-2,6-dimethylphenyl)-1-(7-(2-methoxybenzyl)-3,4-dihydroisoquinolin-2(1H)-yl)propan-1-one]",Ki,human MOR [1],3.7 nM
same,Ki,human KOR [2],3.1 nM
same,Ki,human DOR [3],2.7 nM
same,EC50,human KOR [4],130 nM
same,Emax,human KOR [4],72%
same,EC50 DOR,human DOR [5]; [7],dns *
same,% Stimulation DOR,human DOR [5],dns *
same,EC50,human MOR [6],92 nM
same,Emax,human MOR [6],37%
"Cc1cc(O)cc(C)c1C[C@H](N)C(=O)N1CCc2ccc(Cc3ccccc3O)cc2C1 [Compound 8b, (S)-2-amino-3-(4-hydroxy-2,6-dimethylphenyl)-1-(7-(2-hydroxybenzyl)-3,4-dihydroisoquinolin-2(1H)-yl)propan-1-one]",Ki,human MOR [1],1.2 nM
same,higher affinity for MOR than for DOR,human MOR [1]; ratio of Ki values,two-fold
same,Ki,human KOR [2],0.32 nM
same,higher affinity for KOR than for DOR,human KOR [2]; ratio of Ki values,eight-fold
same,Ki,human DOR [3],2.5 nM
same,EC50,human KOR [4],11 nM
same,Emax,human KOR [4],89%
same,EC50 DOR,human DOR [5]; [7],dns *
same,% Stimulation DOR,human DOR [5],dns *
same,EC50,human MOR [6],43 nM
same,Emax,human MOR [6],60%
"Cc1cc(O)cc(C)c1C[C@H](N)C(=O)N1CCc2ccc(Cc3ccccc3C(F)(F)F)cc2C1 [Compound 8c, (S)-2-amino-3-(4-hydroxy-2,6-dimethylphenyl)-1-(7-(2-(trifluoromethyl)benzyl)-3,4-dihydroisoquinolin-2(1H)-yl)propan-1-one]",Ki,human MOR [1],4.3 nM
same,Ki,human KOR [2],2.6 nM
same,Ki,human DOR [3],4.9 nM
same,EC50,human KOR [4],173 nM
same,Emax,human KOR [4],81%
same,EC50,human DOR [5]; [7],342 nM
same,% Stimulation DOR,human DOR [5],24 (3) %
same,EC50,human MOR [6],53 nM
same,Emax,human MOR [6],76%
"Cc1cc(O)cc(C)c1C[C@H](N)C(=O)N1CCc2ccc(Cc3ccccc3C#N)cc2C1 [Compound 8d, (S)-2-((2-(2-amino-3-(4-hydroxy-2,6-dimethylphenyl)propanoyl)-1,2,3,4-tetrahydroisoquinolin-7-yl)methyl)benzonitrile]",Ki,human MOR [1],6.8 nM
same,Ki,human KOR [2],0.5 nM
same,Ki,human DOR [3],3.6 nM
same,EC50,human KOR [4],3.7 nM
same,Emax,human KOR [4],80%
same,EC50 DOR,human DOR [5]; [7],dns
same,% Stimulation DOR,human DOR [5],dns
same,EC50,human MOR [6],664 nM
same,Emax,human MOR [6],31%
"COc1cccc(Cc2ccc3c(c2)CN(C(=O)[C@@H](N)Cc2c(C)cc(O)cc2C)CC3)c1 [Compound 8e, (S)-2-amino-3-(4-hydroxy-2,6-dimethylphenyl)-1-(7-(3-methoxybenzyl)-3,4-dihydroisoquinolin-2(1H)-yl)propan-1-one]",Ki,human MOR [1],2.7 nM
same,Ki,human KOR [2],3 nM
same,Ki,human DOR [3],1.7 nM
same,EC50,human KOR [4],148 nM
same,Emax,human KOR [4],74%
same,EC50 DOR,human DOR [5]; [7],dns
same,% Stimulation DOR,human DOR [5],dns
same,EC50,human MOR [6],24 nM
same,Emax,human MOR [6],48%
"Cc1cc(O)cc(C)c1C[C@H](N)C(=O)N1CCc2ccc(Cc3cccc(O)c3)cc2C1 [Compound 8f, (S)-2-amino-3-(4-hydroxy-2,6-dimethylphenyl)-1-(7-(3-hydroxybenzyl)-3,4-dihydroisoquinolin-2(1H)-yl)propan-1-one]",Ki,human MOR [1],0.6 nM
same,Ki,human KOR [2],0.8 nM
same,Ki,human DOR [3],1.4 nM
same,EC50,human KOR [4],148 nM
same,Emax,human KOR [4],83%
same,EC50 DOR,human DOR [5]; [7],dns *
same,% Stimulation DOR,human DOR [5],dns *
same,EC50,human MOR [6],18 nM
same,Emax,human MOR [6],81%
"Cc1cc(O)cc(C)c1C[C@H](N)C(=O)N1CCc2ccc(Cc3cccc(C(F)(F)F)c3)cc2C1 [Compound 8g, (S)-2-amino-3-(4-hydroxy-2,6-dimethylphenyl)-1-(7-(3-(trifluoromethyl)benzyl)-3,4-dihydroisoquinolin-2(1H)-yl)propan-1-one]",Ki,human MOR [1],4.1 nM
same,Ki,human KOR [2],5.4 nM
same,Ki,human DOR [3],1.6 nM
same,EC50,human KOR [4],319 nM
same,Emax,human KOR [4],68%
same,EC50 DOR,human DOR [5]; [7],dns
same,% Stimulation DOR,human DOR [5],dns
same,EC50,human MOR [6],205 nM
same,Emax,human MOR [6],45%
"Cc1cccc(Cc2ccc3c(c2)CN(C(=O)[C@@H](N)Cc2c(C)cc(O)cc2C)CC3)c1C [Compound 8i, (S)-2-amino-1-(7-(2,3-dimethylbenzyl)-3,4-dihydroisoquinolin-2(1H)-yl)-3-(4-hydroxy-2,6-dimethylphenyl)propan-1-one]",Ki,human MOR [1],5.2 nM
same,Ki,human KOR [2],5.8 nM
same,Ki,human DOR [3],3.6 nM
same,EC50,human KOR [4],1030 nM
same,Emax,human KOR [4],54%
same,EC50 DOR,human DOR [5]; [7],dns *
same,% Stimulation DOR,human DOR [5],dns *
same,EC50,human MOR [6],380 nM
same,Emax,human MOR [6],34%
"Cc1cc(O)cc(C)c1C[C@H](N)C(=O)N1CCc2ccc(Cc3cccnc3)cc2C1 [Compound 8j, (S)-2-amino-3-(4-hydroxy-2,6-dimethylphenyl)-1-(7-(pyridin-3-ylmethyl)-3,4-dihydroisoquinolin-2(1H)-yl)propan-1-one]",Ki,human MOR [1],5.4 nM
same,Ki,human KOR [2],56 nM
same,Ki,human DOR [3],1.5 nM
same,EC50,human KOR [4],988 nM
same,Emax,human KOR [4],40%
same,EC50 DOR,human DOR [5]; [7],dns
same,% Stimulation DOR,human DOR [5],dns
same,EC50,human MOR [6],145 nM
same,Emax,human MOR [6],23%
"Cc1cc(O)cc(C)c1C[C@H](N)C(=O)N1CCc2ccc(Cc3ccncc3)cc2C1 [Compound 8k, (S)-2-amino-3-(4-hydroxy-2,6-dimethylphenyl)-1-(7-(pyridin-4-ylmethyl)-3,4-dihydroisoquinolin-2(1H)-yl)propan-1-one]",Ki,human MOR [1],42 nM
same,Ki,human KOR [2],44 nM
same,Ki,human DOR [3],2.6 nM
same,EC50,human KOR [4],1180 nM
same,Emax,human KOR [4],44%
same,EC50 DOR,human DOR [5]; [7],dns
same,% Stimulation DOR,human DOR [5],dns
same,EC50,human MOR [6],179 nM
same,Emax,human MOR [6],28%
"Cc1cc(O)cc(C)c1C[C@H](N)C(=O)N1CCc2ccc(CN3CCCCC3)cc2C1 [Compound 8l, (S)-2-amino-3-(4-hydroxy-2,6-dimethylphenyl)-1-(7-(piperidin-1-ylmethyl)-3,4-dihydroisoquinolin-2(1H)-yl)propan-1-one]",Ki,human MOR [1],4.7 nM
same,Ki,human KOR [2],29 nM
same,Ki,human DOR [3],87 nM
same,EC50 KOR,human KOR [4],dns
same,% Stimulation KOR,human KOR [4],dns
same,EC50 DOR,human DOR [5]; [7],dns
same,% Stimulation DOR,human DOR [5],dns
same,EC50,human MOR [6],845 nM
same,Emax,human MOR [6],34%
"Cc1cc(O)cc(C)c1C[C@H](N)C(=O)N1CCc2ccc(CN3CCCC3)cc2C1 [Compound 8m, (S)-2-amino-3-(4-hydroxy-2,6-dimethylphenyl)-1-(7-(pyrrolidin-1-ylmethyl)-3,4-dihydroisoquinolin-2(1H)-yl)propan-1-one]",Ki,human MOR [1],17 nM
same,Ki,human KOR [2],69 nM
same,Ki,human DOR [3],175 nM
same,EC50 KOR,human KOR [4],dns
same,% Stimulation KOR,human KOR [4],dns
same,EC50 DOR,human DOR [5]; [7],dns *
same,% Stimulation DOR,human DOR [5],dns *
same,Emax,human MOR [6],40%
